Source: ChEMBL document CHEMBL2346623, “Deconstruction of sulfonamide inhibitors of the urotensin receptor (UT) and design and synthesis of benzylamine and benzylsulfone antagonists” (Bioorg Med Chem Lett, 2013)

Legend:
Urotensin-2 receptor [1] = biological target: T1, Urotensin-2 receptor (Homo sapiens, UniProt Q9UKP6); assay: Antagonist activity at recombinant human urotensin2 receptor expressed in CHO cells assessed as inhibition of urotensin2-stimulated Ca2+ mobilization after 1 hr by FLIPR assay; assay type: functional, cell-based
T1 sequence (Q9UKP6 whole entry): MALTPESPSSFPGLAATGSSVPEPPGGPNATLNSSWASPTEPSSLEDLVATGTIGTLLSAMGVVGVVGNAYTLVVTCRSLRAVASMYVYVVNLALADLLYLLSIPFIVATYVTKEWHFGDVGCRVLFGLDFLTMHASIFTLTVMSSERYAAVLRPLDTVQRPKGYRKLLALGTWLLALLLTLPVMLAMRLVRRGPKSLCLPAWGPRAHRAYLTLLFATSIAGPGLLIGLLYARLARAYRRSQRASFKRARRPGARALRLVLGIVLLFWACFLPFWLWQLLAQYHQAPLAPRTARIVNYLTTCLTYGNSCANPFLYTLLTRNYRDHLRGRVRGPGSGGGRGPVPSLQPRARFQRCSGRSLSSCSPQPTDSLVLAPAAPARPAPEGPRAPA

Urotensin-2 receptor [2] = biological target: T1, Urotensin-2 receptor; assay: Displacement of [125I]-U2 from human recombinant urotensin2 receptor expressed in human Chem-2 cells after 4 hrs by scintillation proximity assay; assay type: cell-based
[3] = Drug metabolism in human liver microsomes relative to total liver blood flow; assay type: ADME, Microsome; conditions: read-out: Drug metabolism
Urotensin-2 receptor [4] = biological target: T1, Urotensin-2 receptor; assay: Antagonist activity at recombinant human urotensin2 receptor expressed in CHO cells assessed as inhibition of urotensin2-stimulated Ca2+ mobilization incubated 10 mins prior to urotensin2 stimulation measured after 10 mins by fluorometric analysis; assay type: functional, cell-based
Urotensin-2 receptor [5] = biological target: T1, Urotensin-2 receptor; assay: Displacement of [125I]-U2 from recombinant human urotensin2 receptor expressed in human U2OS cells after 30 mins by gamma counting analysis; assay type: cell-based
[6] = Solubility of the compound at pH 7.4; assay type: physicochemical; conditions: buffer
[7] = Solubility of the compound at pH 4.5; assay type: physicochemical; conditions: buffer
Urotensin-2 receptor [8] = biological target: T2, Urotensin-2 receptor (Rattus norvegicus, UniProt P49684); assay: Antagonist activity at rat urotensin2 receptor assessed as inhibition of urotensin2-stimulated Ca2+ mobilization by cell-based assay; assay type: functional
T2 sequence (P49684 whole entry): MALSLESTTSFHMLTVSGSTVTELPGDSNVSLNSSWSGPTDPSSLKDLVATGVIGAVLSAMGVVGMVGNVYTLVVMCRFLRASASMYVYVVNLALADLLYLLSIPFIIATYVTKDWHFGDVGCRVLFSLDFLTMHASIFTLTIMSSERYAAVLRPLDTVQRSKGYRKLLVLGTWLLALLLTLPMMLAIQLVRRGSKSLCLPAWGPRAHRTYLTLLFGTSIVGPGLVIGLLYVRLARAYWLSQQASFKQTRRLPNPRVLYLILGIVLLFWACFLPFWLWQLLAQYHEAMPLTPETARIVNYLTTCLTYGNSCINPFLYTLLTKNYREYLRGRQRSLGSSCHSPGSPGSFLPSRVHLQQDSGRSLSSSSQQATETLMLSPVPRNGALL

Urotensin-2 receptor [9] = biological target: T3, Urotensin-2 receptor (Mus musculus, UniProt Q8VIH9); assay: Antagonist activity at mouse urotensin2 receptor assessed as inhibition of urotensin2-stimulated Ca2+ mobilization by cell-based assay; assay type: functional
T3 sequence (Q8VIH9 whole entry): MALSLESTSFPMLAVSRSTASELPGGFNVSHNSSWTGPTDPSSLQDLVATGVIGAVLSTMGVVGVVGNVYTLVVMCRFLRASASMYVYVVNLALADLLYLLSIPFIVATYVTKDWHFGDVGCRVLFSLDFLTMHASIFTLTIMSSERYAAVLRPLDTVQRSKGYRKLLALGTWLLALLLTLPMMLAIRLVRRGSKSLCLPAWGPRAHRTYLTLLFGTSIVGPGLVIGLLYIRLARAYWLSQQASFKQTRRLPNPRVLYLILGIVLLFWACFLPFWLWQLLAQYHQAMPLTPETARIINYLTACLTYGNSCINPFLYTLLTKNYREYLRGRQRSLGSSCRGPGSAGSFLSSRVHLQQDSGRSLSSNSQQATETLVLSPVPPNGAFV

[10] = Drug metabolism in rat liver microsomes relative to total liver blood flow; assay type: ADME, Microsome; conditions: read-out: Drug metabolism

Row | SMILES | IC50 (Urotensin-2 receptor [1]) | IC50 (Urotensin-2 receptor [2]) | hepatic extraction ratio [3] | also measured
1 | COc1cc(Br)c(S(=O)(=O)Nc2ccc(C(F)(F)F)c(OC[C@H]3CCCN3C)c2)cc1OC | 350 nM | 800 nM | – | –
2 | COc1cccc(CNc2ccc(C(F)(F)F)c(O[C@H]3CCN(C)C3)c2)c1 | 1130 nM | 691 nM | – | –
3 | COc1cc(Br)c([S+]([O-])Cc2ccc(Cl)c(O[C@@H]3CCN(C)C3)c2)cc1OC (stereo partly drawn) | – | 245 nM | 0.72 | –
4 | CN(C)CCOc1cc(NCc2ccccc2C(F)(F)F)ccc1Cl | 765 nM | 520 nM | – | –
5 | COc1cc(Br)c(S(=O)(=O)Nc2ccc(C(F)(F)F)c(OCCN3CCN(C)CC3)c2)cc1OC | – | 840 nM | – | –
6 | CN1CC[C@H](Oc2cc(NCc3c(Br)ccc4c3OCO4)ccc2C(F)(F)F)C1 | 1400 nM | 620 nM | – | –
7 | COc1cc(Br)c(S(=O)(=O)Nc2ccc(Cl)c(O[C@@H]3CCN(C)C3)c2)cc1OC | 43 nM | 23 nM | 0.65 | –
8 | CN1CC[C@H](Oc2cc(NCc3ccccc3Br)ccc2C(F)(F)F)C1 | 1870 nM | 821 nM | – | –
9 | COc1cc(Br)c(S(=O)(=O)Cc2ccc(Cl)c(O[C@@H]3CCN(C)C3)c2)cc1OC | – | – | – | solubility [6]: > 87 µg/mL; solubility [7]: > 87 µg/mL; IC50 (Urotensin-2 receptor [8]): 2000 nM; IC50 (Urotensin-2 receptor [9]): 4700 nM
10 | COc1cc(Br)c(CNc2ccc(Cl)c(OCCN(C)C)c2)cc1OC | 1300 nM | 1200 nM | – | –
11 | COc1cc(Br)c(S(=O)(=O)Nc2ccc(C(F)(F)F)c(OC[C@@H]3CCCN3C)c2)cc1OC | – | 2100 nM | – | –
12 | CN(C)CCOc1cc(NCc2ccccc2)ccc1Cl | – | > 10000 nM | – | –
13 | COc1cc(Br)c(CNc2ccc(C(F)(F)F)c(O[C@H]3CCN(C)C3)c2)cc1OC | 191 nM | 217 nM | 0.43 | solubility [6]: > 52 µg/mL; hepatic extraction ratio [10]: < 0.06; solubility [7]: > 52 µg/mL; IC50 (Urotensin-2 receptor [8]): 3900 nM; IC50 (Urotensin-2 receptor [9]): 6400 nM
14 | COc1cc(Br)c(S(=O)(=O)Nc2ccc(C(F)(F)F)c(OCCN3CCOCC3)c2)cc1OC | – | 6200 nM | – | –

Further lines, with some results ahead:

Row | IC50 (Urotensin-2 receptor [1]) | IC50 (Urotensin-2 receptor [2]) | hepatic extraction ratio [3] | SMILES | also measured
15 | 1330 nM | 237 nM | 0.28 | COc1cc(Br)c(CNc2ccc(Cl)c(O[C@@H]3CCN(C)C3)c2)cc1OC | –
16 | – | – | 0.53 | Cc1cc(NC(=O)NCCN2CCC(O)(Cc3ccccc3)CC2)c2ccccc2n1 [PALOSURAN] | IC50 (Urotensin-2 receptor [4]): 39 nM; IC50 (Urotensin-2 receptor [5]): < 5 nM
17 | – | 440 nM | 0.76 | COc1cc(Br)c(SCc2ccc(Cl)c(O[C@@H]3CCN(C)C3)c2)cc1OC | –
18 | 6000 nM | 3500 nM | – | CN(C)CCOc1cc(NCc2ccccc2Br)ccc1Cl | –
19 | 950 nM | 450 nM | – | CN1CC[C@H](Oc2cc(NCc3cc4c(cc3Br)OCO4)ccc2C(F)(F)F)C1 | –
20 | 2000 nM | 2700 nM | – | CN1CC[C@H](Oc2cc(NCc3cccs3)ccc2C(F)(F)F)C1 | –
21 | 100 nM | 134 nM | – | COc1cc(Br)c(S(=O)(=O)Nc2ccc(C(F)(F)F)c(OCCN(C)C)c2)cc1OC | –
22 | 1450 nM | 1350 nM | 0.36 | COc1cc(Br)c(CNc2ccc(Cl)c(O[C@H]3CCN(C)C3)c2)cc1OC | –
23 | – | > 10000 nM | – | COc1cc(Br)c(S(=O)(=O)Nc2ccc(C(F)(F)F)c(F)c2)cc1OC | –
